Source: PubChem BioAssay AID2060891 (Molecular Pharmacology Branch, DTP, NCI, 2025)

Tested on: K98450-129-R-PDC complex spheroid growth, percent test/control
Experiment: Anticancer human tumor K98450-129-R-PDC patient-derived colon adenocarcinoma cell line growth inhibition [RAS]
Conditions: for IC50: curve of first compound; for viability, T/C: stronger effect = lower value
Excerpt: RAS pathway inhibitors in Combinations in Complex Spheroids
A high-throughput screen of multi-cell type tumor spheroids was designed to identify active combinations of RAS pathway inhibitors and targeted small molecules. Complex spheroids include a stromal component modeled by human endothelial cells (HUVEC) and fibroblasts modeled by human mesenchymal stem cells (MSCs). The concentration ranges selected for each drug and investigational agent were based upon clinically achievable concentrations if the clinical Cmax of the agent was known.
Compounds. The drugs and investigational agents: abemaciclib (NSC768073), cobimetinib (NSC768068), divarasib (GDC6063, NSC841802), docetaxel (NSC628503), GDC-1971 (RLY-1971, NSC841576), gemcitabine (NSC613327), inavolisib (NSC800729), ipatasertib (NSC767898), KB-0742 (NSC834161), MRTX-1133 (NSC836407), osimertinib (NSC779217), RMC-4630 (NSC839698), RMC-6236 (NSC851965), RMC-6291 (NSC852671), Ro-3306 (NSC812927), sapanisertib (NSC764658), SN-38 (NSC673596), staurosporine (NSC755774), SY5609 (NSC837396), and tovorafenib (DAY101, NSC766906), were obtained from the National Cancer Institute (NCI) Developmental Therapeutics Program Chemical Repository. The FDA-approved anticancer drug set is available from the NCI Developmental Therapeutics Program. […] The stock solutions were prepared in dimethyl sulfoxide (DMSO, Sigma-Aldrich, St. Louis, MO, cat. D2650) at 800-fold the tested concentration and stored at -70 degrees C prior to their use. All drugs and investigational agents were tested over a range starting from a high concentration at or near the clinical Cmax and decreasing in half-log increments. If the clinical Cmax for an agent had not been determined, the highest concentration tested was 10 microM.
Cell Culture. All cells were maintained in an incubator at 37 degrees C and 5% CO2 with 95% humidity. The PDC lines were cultured according to standard operating procedures established by the NCI PDMR. All PDCs were thawed and cultured in Matrigel-coated flasks prepared with a working solution of 1X Ham's F-12 nutrient mix, without supplementation (Invitrogen, Waltham, MA, cat. 11765054), 100 U/mL penicillin-streptomycin (Invitrogen, cat. 15140122), and 2.5% Matrigel (Corning Inc., Corning, NY, cat. 354248) for the first three passages. The 362531-283-R-J2-PDC and 782815-120-R-J1-PDC lines were cultured in 6C/Colon 1B media, which includes advanced DMEM/F-12 (Thermo Fisher Scientific, cat. 12634028), 10 mM HEPES (Thermo Fisher Scientific, cat. 15630080), 1X GlutaMAX supplement (Thermo Fisher Scientific, cat. 35050061), 0.1 mg/mL primocin (InvivoGen, San Diego, CA, cat. ant-pm-2), 10% defined fetal bovine serum, heat inactivated (HyClone Laboratories Inc., Logan, UT, cat. SH30070.03HI), 50% L-WRN conditioned media (ATCC, cat. CRL-3276), 1.25 mM N-Acetyl-L-cysteine (Sigma-Aldrich, cat. A9165), 10 mM nicotinamide (Sigma-Aldrich, cat. N0636), 1X B-27 supplement (Thermo Fisher Scientific, cat. 17504044), 1X N-2 supplement (Thermo Fisher Scientific, cat. 17502048), 50 ng/mL human EGF (Thermo Fisher Scientific, cat. PHG0311), and 10 microM Y-27632 dihydrochloride (Tocris Bioscience, cat. 1254). The K12877-001-R-J1-PDC line was cultured in 6I media, which includes all 6C/Colon 1B media plus 10 ng/mL human FGF-10 (PeproTech, cat. 100-26), 1 ng/mL human FGF-2 (PeproTech, cat. 100-18B), 1 µM prostaglandin E2 (Tocris Bioscience, cat. 2296), […] hydrocortisone (Sigma-Aldrich, cat. H4001), and […] bovine insulin (Sigma-Aldrich, cat. I6634). The K86415-001-R-J1-PDC line was cultured in 6D media, which includes all 6C/Colon 1B media components minus the L-WRN conditioned media. The 485176-168-R4-J1-PDC was cultured in PANC media, which includes all 6C/Colon 1B media plus 100 ng/mL human FGF-10 (PeproTech, cat. 100-26), 500 nM SB-431542 (Selleckchem, cat. S1067), and 10 nM gastrin (Tocris Bioscience, cat. 3006). […]
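Note: spheroids exposed to agents for seven days before the viability readout.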
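Throughout, for viability, T/C: luminescence used as a proxy for viable cell amount.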

C=CC(=O)Nc1cc(Nc2nccc(-c3cn(C)c4ccccc34)n2)c(OC)cc1N(C)CCN(C)C + C#Cc1c(F)ccc2cc(O)cc(-c3ncc4c(N5CC6CCC(C5)N6)nc(OCC56CCCN5CC(F)C6)nc4c3F)c12 gave an IC50 (second compound 0.0316 µM) of 622 nM, an IC50 (second compound 0.1 µM) of 637 nM and an IC50 (second compound 0.316 µM) of 584 nM. For the same compound, the IC50 (second compound 1 µM) was 468 nM, the IC50 (second compound 3.16 µM) was 330 nM and the IC50 (second compound 10 µM) was 193 nM. The viability, T/C (second compound 0.0316 µM, first compound 0.00316 µM) was 107%, the viability, T/C (second compound 0.0316 µM, first compound 0.01 µM) was 112% and the viability, T/C (second compound 0.0316 µM, first compound 0.0316 µM) was 106%. The viability, T/C (second compound 0.0316 µM, first compound 0.1 µM) was 100%, the viability, T/C (second compound 0.0316 µM, first compound 0.316 µM) was 69.4% and the viability, T/C (second compound 0.0316 µM, first compound 1 µM) was 36.4%. The viability, T/C (second compound 0.1 µM, first compound 0.00316 µM) was 107%, the viability, T/C (second compound 0.1 µM, first compound 0.01 µM) was 100% and the viability, T/C (second compound 0.1 µM, first compound 0.0316 µM) was 103%. The viability, T/C (second compound 0.1 µM, first compound 0.1 µM) was 101%, the viability, T/C (second compound 0.1 µM, first compound 0.316 µM) was 79.6% and the viability, T/C (second compound 0.1 µM, first compound 1 µM) was 30.9%. The viability, T/C (second compound 0.316 µM, first compound 0.00316 µM) was 112%, the viability, T/C (second compound 0.316 µM, first compound 0.01 µM) was 106% and the viability, T/C (second compound 0.316 µM, first compound 0.0316 µM) was 97.9%. It also gave a viability, T/C (second compound 0.316 µM, first compound 0.1 µM) of 95.8%, a viability, T/C (second compound 0.316 µM, first compound 0.316 µM) of 78.6% and a viability, T/C (second compound 0.316 µM, first compound 1 µM) of 26%. For the same compound, the viability, T/C (second compound 1 µM, first compound 0.00316 µM) was 105%, the viability, T/C (second compound 1 µM, first compound 0.01 µM) was 105% and the viability, T/C (second compound 1 µM, first compound 0.0316 µM) was 92.6%. For the same compound, the viability, T/C (second compound 1 µM, first compound 0.1 µM) was 95%, the viability, T/C (second compound 1 µM, first compound 0.316 µM) was 66.3% and the viability, T/C (second compound 1 µM, first compound 1 µM) was 16.6%. For the same compound, the viability, T/C (second compound 3.16 µM, first compound 0.00316 µM) was 93.7%, the viability, T/C (second compound 3.16 µM, first compound 0.01 µM) was 94.3% and the viability, T/C (second compound 3.16 µM, first compound 0.0316 µM) was 94.6%. For the same compound, the viability, T/C (second compound 3.16 µM, first compound 0.1 µM) was 89.7%, the viability, T/C (second compound 3.16 µM, first compound 0.316 µM) was 51.5% and the viability, T/C (second compound 3.16 µM, first compound 1 µM) was 11.5%. It also gave a viability, T/C (second compound 10 µM, first compound 0.00316 µM) of 91.9%, a viability, T/C (second compound 10 µM, first compound 0.01 µM) of 85.3% and a viability, T/C (second compound 10 µM, first compound 0.0316 µM) of 90.1%. For the same compound, the viability, T/C (second compound 10 µM, first compound 0.1 µM) was 79.3%, the viability, T/C (second compound 10 µM, first compound 0.316 µM) was 28% and the viability, T/C (second compound 10 µM, first compound 1 µM) was 10.6%.
